From patent US5961892A, “Polyalkoxylated naphthopyrans” (PPG Industries Ohio, Inc., priority 1998, dated 1999)

Key:
[1] = UV-Visible absorption (lambda max) of photochromic test square polymerizates in Varian Cary 3 UV-Visible spectrophotometer; assay type: physicochemical; conditions: 1.5×10-3 molal; for (λ) max (VIS): maximum absorption of the activated (colored) form in the visible spectrum, test square; for (λ) max (UV): wavelength in the ultraviolet range closest to the visible spectrum at which absorption occurs, test square of BPA 2EO DMA/poly(ethylene glycol) 600 dimethacrylate
Description: (§1) Testing was done with the photochromic compounds described in Examples 1 through 4 and Comparative Examples 1 through 3 in the following manner. A quantity of photochromic compound calculated to yield a 1.5×10-3 molal solution was added to a flask containing 50 grams of a monomer blend of 4 parts ethoxylated bisphenol A dimethacrylate (BPA 2EO DMA), 1 part poly(ethylene glycol) 600 dimethacrylate, and 0.033 weight percent 2,2'-azobis(2-methyl propionitrile) (AIBN). The photochromic compound was dissolved into the monomer blend by stirring and gentle heating, if necessary. After a clear solution was obtained, it was poured into a flat sheet mold having the interior dimensions of 2.2 mm×6 inches (15.24 cm)×6 inches (15.24 cm). The mold was sealed and placed in a horizontal air flow, programmable oven programmed to increase the temperature from 40° C. to 95° C. over a 5 hour interval, hold the temperature at 95° C. for 3 hours, lower it to 60° C. over a 2 hour interval and then hold it at 60° C. for 16 hours. After the mold was opened, the polymer sheet was cut using a diamond blade saw into 2 inch (5.1 centimeters) test squares.
The ΔOD/Min, which represents the sensitivity of the photochromic compound's response to UV light, was measured over the first five (5) seconds of UV exposure, then expressed on a per minute basis. The saturation optical density (ΔOD@ Saturation) was taken under identical conditions as the ΔOD/Min, except UV exposure was continued for 15 minutes. The lambda max (Vis) is the wavelength in nanometers (nm) in the visible spectrum at which the maximum absorption of the activated (colored) form of the photochromic compound in a test square occurs. The lambda max (Vis) wavelength was determined by testing the photochromic test square polymerizates of Part A in a Varian Cary 3 UV-Visible spectrophotometer. The lambda (λ) max (UV) is the wavelength in nanometers in the ultraviolet range closest to the visible spectrum at which the absorption of the photochromic compound occurs. This absorption was also determined with the same spectrophotometer. The Bleach Rate (T 1/2) is the time interval in seconds for the absorbance of the activated form of the photochromic compound in the test squares to reach one half the highest absorbance at room temperature (72° F., 22.2° C.) after removal of the source of activating light.

[2] = Photochromic response of test squares on optical bench (sensitivity, saturation optical density, bleach rate); assay type: physicochemical; conditions: for decrease in T 1/2 versus corresponding Comparative Example: % less than corresponding CE (Example 1 vs CE1; average of Examples 2 and 4 vs CE2; Example 3 vs CE3); for ΔOD@ Saturation: UV exposure continued for 15 minutes; for ΔOD@ Saturation / ΔOD/MIN Sensitivity: 72° F. (22.2° C.); for ΔOD/MIN Sensitivity: first five (5) seconds of UV exposure, expressed per minute, 0.15 to 0.20 mW/cm2; for Bleach Rate (T 1/2): time for absorbance of activated form to reach one half the highest absorbance at room temperature (72° F., 22.2° C.) after removal of activating light
Description: as §1
The photochromic test squares prepared in Part A were tested for photochromic response on an optical bench. Prior to testing on the optical bench, the photochromic test squares were conditioned, i.e., exposed to 365 nanometer ultraviolet light for about 15 minutes to activate the photochromic compounds and then placed in a 76° C. oven for about 15 minutes to bleach or inactivate the photochromic compounds. The test squares were then cooled to room temperature, exposed to fluorescent room lighting for at least 2 hours and then kept covered for at least 2 hours prior to testing on an optical bench maintained at 72° F. (22.2° C.). The bench was fitted with a 250 watt Xenon arc lamp, a remote controlled shutter, a copper sulfate bath acting as a heat sink for the arc lamp, a Schott WG-320 nm cut-off filter which removes short wavelength radiation; neutral density filter(s) and a sample holder in which the square to be tested was inserted. The power output of the optical bench, i.e., the dosage of light that the sample lens would be exposed to, was calibrated with a photochromic test square used as a reference standard. […] The UV-A detector was placed into the sample holder and the light output was measured. Adjustments to the power output were made by increasing or decreasing the lamp wattage or by adding or removing neutral density filters in the light path.
A monitoring, collimated beam of light from a tungsten lamp was passed through the square at a small angle (approximately 30°) normal to the square. After passing through the square, the light from the tungsten lamp was directed to a detector through Spectral Energy Corp. GM-200 monochromator set at the previously determined visible lambda max of the photochromic compound being measured. The output signals from the detector were processed by a radiometer.
Change in optical density (ΔOD) was determined by inserting a test square in the bleached state into the sample holder, adjusting the transmittance scale to 100%, opening the shutter from the Xenon lamp to provide ultraviolet radiation to change the test square from the bleached state to an activated (i.e., darkened) state, measuring the transmittance in the activated state, and calculating the change in optical density according to the formula: ΔOD=log(100/% Ta), where % Ta is the percent transmittance in the activated state and the logarithm is to the base 10.
The ΔOD/Min, which represents the sensitivity of the photochromic compound's response to UV light, was measured over the first five (5) seconds of UV exposure, then expressed on a per minute basis. The saturation optical density (ΔOD@ Saturation) was taken under identical conditions as the ΔOD/Min, except UV exposure was continued for 15 minutes. […]

Compound	(λ) max (VIS) [1] [nm]	(λ) max (UV) [1] [nm]	decrease in T 1/2 versus corresponding Comparative Example [2] [%]	Sensitivity, units less than corresponding Comparative Example ([2]; Example 1 versus Comparative Example 1)	ΔOD@ Saturation [2]	ΔOD/MIN Sensitivity [2]	Bleach Rate (T 1/2) [2] [min]
2,2-bis(4-methoxyphenyl)-5-methoxycarbonyl-6-methoxy(polyethoxy)-2H-naphtho[1,2-b]pyran [Example 1]	511	353	24	more than 0.02 units	0.48	0.19 ΔOD/MIN	1.72
COCCOCCOCCOC(=O)c1c2c(c3ccccc3c1C)OC(c1ccccc1)(c1ccccc1)C=C2 [Example 3, 2,2-diphenyl-5-(2-(2-(2-methoxyethoxy)ethoxy)ethoxycarbonyl)-6-methyl-2H-naphtho[1,2b]pyran]	475	349	42	–	0.86	0.24 ΔOD/MIN	4.5
COC(=O)c1c2c(c3ccccc3c1C)OC(c1ccccc1)(c1ccccc1)C=C2 [CE3, 2,2-diphenyl-5-methoxycarbonyl-6-methyl-2H-naphtho[1,2b]pyran, reference compound]	476	349	–	–	1.17	0.23 ΔOD/MIN	7.75
COCCOCCOCCOC(=O)c1c2c(c3ccccc3c1-c1ccccc1)OC(c1ccccc1)(c1ccccc1)C=C2 [Example 4, 2,2-diphenyl-5-(2-(2-(2-methoxyethoxy)ethoxy)ethoxy-carbonyl)-6-phenyl-2H-naphtho[1,2-b]pyran]	486	348	–	–	0.67	0.28 ΔOD/MIN	2.75
COC(=O)c1c2c(c3ccccc3c1OC)OC(c1ccc(OC)cc1)(c1ccc(OC)cc1)C=C2 [CE1, 2,2-bis(4-methoxyphenyl)-5-methoxycarbonyl-6-methoxy-2H-naphtho[1,2-b]pyran, reference compound]	512	353	–	–	0.77	0.29 ΔOD/MIN	2.27
COC(=O)c1c2c(c3ccccc3c1-c1ccccc1)OC(c1ccccc1)(c1ccccc1)C=C2 [CE2, 2,2-diphenyl-5-methoxycarbonyl-6-phenyl-2H-naphtho[1,2-b]pyran, reference compound]	486	348	–	–	0.80	0.28 ΔOD/MIN	3.83
COCCOCCOC(=O)c1c2c(c3ccccc3c1-c1ccccc1)OC(c1ccccc1)(c1ccccc1)C=C2 [Example 2, 2,2-diphenyl-5-(2-(2-methoxyethoxy)ethoxycarbonyl)-6-phenyl[2H]naphtho[1,2-b]pyran]	486	348	–	–	0.67	0.26 ΔOD/MIN	2.78
